Results from US20220073536A1 (Rigel Pharmaceuticals, Inc., priority 2003, published 2022).

What was measured:
[1] = tested on: cultured human mast cells (CHMC); assay: CHMC low cell density IgE activation: tryptase assay; type: cell-based; settings: low cell density CHMC, IgE activation, tryptase release
Method in brief: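 Anti-IgE-driven degranulation of cultured human mast cells at low density, 1000–1500 cells/well, was induced over 30 min at 37 °C. It was scored by supernatant tryptase activity on a fluorogenic substrate.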

[2] = tested on: cultured human mast cells (CHMC); assay: CHMC low cell density ionomycin activation: tryptase assay; type: cell-based; settings: low cell density CHMC, tryptase release, 3 point, read-out: LD Tryptase, CHMC, Iono, 3 pt
[3] = Homo sapiens, Mast cell, 3 point, read-out: LD Tryptase, CHMC, IgE, 3 pt
[4] = Homo sapiens, Mast cell, 8 point, read-out: LD Tryptase, CHMC, IgE, 8 pt
[5] = 3 point, read-out: LD Tryptase, CHMC, IgE, 3 pt
[6] = 8 point, read-out: LD Tryptase, CHMC, IgE, 8 pt

**Q.** For `CNC(=O)c1cc(Nc2ncc(F)c(Nc3ccc(Cl)c(C(F)(F)F)c3)n2)ccc1Cl` [Compound 609], which IC50 [1, 3] is on record?
**A.** < 10 µM

**Q.** What about the IC50 [1, 4] of the same compound?
**A.** < 10 µM

**Q.** And the IC50 ([2]; Homo sapiens, Mast cell)?
**A.** > 10 µM

**Q.** How did the IC50 [1, 3] turn out when `CNC(=O)c1cc(Nc2ncc(F)c(N(C)c3cc(C)c(Cl)c(C)c3)n2)ccc1Cl` [Compound 610, N4-(4-Chloro-3,5-dimethylphenyl)-N2-[4-chloro-3-(N-methylamino)carbonylphenyl]-5-fluoro-N4-methyl-2,4-pyrimidinediamine] was run?
**A.** > 10 µM

**Q.** And the IC50 ([2]; Homo sapiens, Mast cell)?
**A.** > 10 µM

**Q.** What does the source list for `CNC(=O)c1ccc(Nc2ncc(F)c(Nc3ccc(Cl)c(OC)c3)n2)cc1Cl` [Compound 611, N4-(4-Chloro-3-methoxyphenyl)-N2-[3-chloro-4-(N-methylamino)carbonylphenyl]-5-fluoro-2,4-pyrimidinediamine]?
**A.** IC50 [1, 3]: < 10 µM; IC50 [1, 4]: < 10 µM; IC50 ([2]; Homo sapiens, Mast cell): > 10 µM

**Q.** For `CNC(=O)c1ccc(Nc2ncc(F)c(Nc3ccc(Cl)c(C(F)(F)F)c3)n2)cc1Cl` [Compound 612, N2-[3-Chloro-4-(N-methylamino)carbonylphenyl]-N4-(4-chloro-3-trifluoromethylphenyl)-5-fluoro-2,4-pyrimidinediamine], which IC50 [1, 3] is on record?
**A.** < 10 µM

**Q.** And the IC50 [1, 4]?
**A.** < 10 µM

**Q.** What about the IC50 ([2]; Homo sapiens, Mast cell) of the same compound?
**A.** > 10 µM

**Q.** `CNC(=O)c1ccc(Nc2ncc(F)c(N(C)c3cc(C)c(Cl)c(C)c3)n2)cc1Cl` [Compound 613, N4-(4-Chloro-3,5-dimethylphenyl)-N2-[3-chloro-4-(N-methylamino)carbonylphenyl]-5-fluoro-N4-methyl-2,4-pyrimidinediamine] was tested. Which IC50 [1, 3] did it give?
**A.** < 10 µM

**Q.** What about the IC50 ([2]; Homo sapiens, Mast cell) of the same compound?
**A.** > 10 µM

**Q.** `COC(=O)COc1ccc(Nc2nc(Nc3cc(C)cc(C)c3)ncc2F)cc1Cl` [Compound 614, N4-[3-Chloro-4-(methoxycarbonyl)methyleneoxyphenyl]-N2-(3,5-dimethylphenyl)-5-fluoro-2,4-pyrimidinediamine] was tested. Which IC50 [1, 5] did it give?
**A.** < 10 µM

**Q.** What about the IC50 [1, 6] of the same compound?
**A.** < 10 µM

**Q.** What about the IC50 [2] of the same compound?
**A.** < 10 µM

**Q.** Which IC50 [1, 5] does the source give for `COC(=O)COc1ccc(Nc2nc(Nc3cc(OC)cc(OC)c3)ncc2F)cc1Cl` [Compound 615, N4-[3-Chloro-4-(methoxycarbonyl)methyleneoxyphenyl]-N2-(3,5-dimethoxyphenyl)-5-fluoro-2,4-pyrimidinediamine] here?
**A.** < 10 µM

**Q.** And the IC50 [1, 6]?
**A.** < 10 µM

**Q.** What about the IC50 [2] of the same compound?
**A.** < 10 µM

**Q.** `COC(=O)COc1ccc(Nc2nc(Nc3ccc(OC)c(Cl)c3)ncc2F)cc1Cl` [Compound 616, N4-[3-Chloro-4-(methoxycarbonyl)methyleneoxyphenyl]-N2-(3-chloro-4-methoxyphenyl)-5-fluoro-2,4-pyrimidinediamine] was tested. Which IC50 [1, 5] did it give?
**A.** < 10 µM

**Q.** What about the IC50 [1, 6] of the same compound?
**A.** < 10 µM

**Q.** And the IC50 [2]?
**A.** < 10 µM

**Q.** `COC(=O)COc1ccc(Nc2nc(Nc3cc(C)c(Cl)c(C)c3)ncc2F)cc1Cl` [Compound 617, N2-(4-Chloro-3,5-dimethylphenyl)-N4-[3-chloro-4-(methoxycarbonyl)methyleneoxyphenyl]-5-fluoro-2,4-pyrimidinediamine] was tested. Which IC50 [1, 5] did it give?
**A.** < 10 µM

**Q.** And the IC50 [1, 6]?
**A.** < 10 µM

**Q.** What about the IC50 [2] of the same compound?
**A.** < 10 µM

**Q.** With `COC(=O)COc1ccc(Nc2nc(Nc3ccc4[nH]ccc4c3)ncc2F)cc1Cl` [Compound 618, N4-[3-Chloro-4-(methoxycarbonyl)methyleneoxyphenyl]-5-fluoro-N2-(indol-5-yl)-2,4-pyrimidinediamine] as the compound, how does the IC50 [1, 5] read?
**A.** < 10 µM

**Q.** And the IC50 [1, 6]?
**A.** < 10 µM

**Q.** What about the IC50 [2] of the same compound?
**A.** > 10 µM

**Q.** For `Cc1cc(C)cc(Nc2ncc(F)c(Nc3ccc(OCCO)c(Cl)c3)n2)c1` [Compound 619, N4-[3-Chloro-4-(2-hydroxyethyleneoxy)phenyl]-N2-(3,5-dimethylphenyl)-5-fluoro-2,4-pyrimidinediamine], which IC50 [1, 5] is on record?
**A.** < 10 µM

**Q.** What about the IC50 [1, 6] of the same compound?
**A.** < 10 µM

**Q.** And the IC50 [2]?
**A.** < 10 µM

**Q.** Which results are given for `COc1cc(Nc2ncc(F)c(Nc3ccc(OCCO)c(Cl)c3)n2)cc(OC)c1` [Compound 620, N4-[3-Chloro-4-(2-hydroxyethyleneoxy)phenyl]-N2-(3,5-dimethoxyphenyl)-5-fluoro-2,4-pyrimidinediamine]?
**A.** IC50 [1, 5]: < 10 µM; IC50 [1, 6]: < 10 µM; IC50 [2]: < 10 µM

**Q.** What does the source list for `COc1ccc(Nc2ncc(F)c(Nc3ccc(OCCO)c(Cl)c3)n2)cc1Cl` [Compound 621, N4-[3-Chloro-4-(2-hydroxyethyleneoxy)phenyl]-N2-(3-chloro-4-methoxyphenyl)-5-fluoro-2,4-pyrimidinediamine]?
**A.** IC50 [1, 5]: < 10 µM; IC50 [1, 6]: < 10 µM; IC50 [2]: > 10 µM

**Q.** With `Cc1cc(Nc2ncc(F)c(Nc3ccc(OCCO)c(Cl)c3)n2)cc(C)c1Cl` [Compound 622, N2-(4-Chloro-3,5-dimethylphenyl)-N4-[3-chloro-4-(2-hydroxyethyleneoxy)phenyl]-5-fluoro-2,4-pyrimidinediamine] as the compound, how does the IC50 [1, 5] read?
**A.** < 10 µM

**Q.** And the IC50 [1, 6]?
**A.** < 10 µM

**Q.** And the IC50 [2]?
**A.** > 10 µM

**Q.** What does the source list for `OCCOc1ccc(Nc2nc(Nc3ccc4[nH]ccc4c3)ncc2F)cc1Cl` [Compound 623, N4-[3-Chloro-4-(2-hydroxyethyleneoxy)phenyl]-5-fluoro-N2-(indol-5-yl)-2,4-pyrimidinediamine]?
**A.** IC50 [1, 5]: < 10 µM; IC50 [1, 6]: < 10 µM; IC50 [2]: < 10 µM

**Q.** What does the source list for `COc1cc(Nc2ncc(F)c(Nc3ccc(OCCO)c(Cl)c3)n2)ccc1Cl` [Compound 624, N4-[3-Chloro-4-(2-hydroxyethyleneoxy)phenyl]-N2-(4-chloro-3-methoxyphenyl)-5-fluoro-2,4-pyrimidinediamine]?
**A.** IC50 [1, 5]: < 10 µM; IC50 [1, 6]: < 10 µM; IC50 [2]: > 10 µM

**Q.** For `CNC(=O)COc1ccc(Nc2nc(Nc3ccc4[nH]ccc4c3)ncc2F)cc1Cl` [Compound 625, N4-[3-Chloro-4-(N-methylamino)carbonylmethyleneoxyphenyl]-5-fluoro-N2-(indol-5-yl)-2,4-pyrimidinediamine], which IC50 [1, 5] is on record?
**A.** < 10 µM

**Q.** And the IC50 [1, 6]?
**A.** < 10 µM

**Q.** What about the IC50 [2] of the same compound?
**A.** < 10 µM

**Q.** With `Cc1cc(N(C)c2nc(Cl)ncc2F)cc(C)c1Cl` [Compound 626] as the compound, how does the IC50 [1, 3] read?
**A.** > 10 µM

**Q.** And the IC50 ([2]; Homo sapiens, Mast cell)?
**A.** < 10 µM

**Q.** What does the source list for `CN(c1ccc2c(c1)OC(F)(F)C(F)(F)O2)c1nc(Cl)ncc1F` [Compound 627]?
**A.** IC50 [1, 5]: > 10 µM; IC50 [2]: > 10 µM

**Q.** For `CN(c1ccc2c(c1)OC(F)(F)O2)c1nc(Cl)ncc1F` [Compound 628], which IC50 [1, 5] is on record?
**A.** > 10 µM

**Q.** What about the IC50 [2] of the same compound?
**A.** > 10 µM

**Q.** Which results are given for `Fc1cnc(Nc2ccc3cc[nH]c3c2)nc1Nc1ccc(Cl)c(C(F)(F)F)c1` [Compound 629, N4-(4-Chloro-3-trifluoromethylphenyl)-5-fluoro-N2-(indol-6-yl)-2,4-pyrimidinediamine]?
**A.** IC50 [1, 3]: < 10 µM; IC50 [1, 4]: < 10 µM; IC50 ([2]; Homo sapiens, Mast cell): > 10 µM

**Q.** For `COc1cc(Nc2nc(Nc3ccc4cc[nH]c4c3)ncc2F)ccc1Cl` [Compound 630, N4-(4-Chloro-3-methoxyphenyl)-5-fluoro-N2-(indol-6-yl)-2,4-pyrimidinediamine], which IC50 [1, 3] is on record?
**A.** < 10 µM

**Q.** And the IC50 [1, 4]?
**A.** < 10 µM

**Q.** And the IC50 ([2]; Homo sapiens, Mast cell)?
**A.** > 10 µM

**Q.** With `COC(=O)COc1ccc(Nc2nc(Nc3ccc4cc[nH]c4c3)ncc2F)cc1Cl` [Compound 631, N4-(3-Chloro-4-methoxycarbonylmethyleneoxyphenyl)-5-fluoro-N2-(indol-6-yl)-2,4-pyrimidinediamine] as the compound, how does the IC50 [1, 5] read?
**A.** < 10 µM

**Q.** And the IC50 [1, 6]?
**A.** < 10 µM

**Q.** What about the IC50 [2] of the same compound?
**A.** < 10 µM

**Q.** `OCCOc1ccc(Nc2nc(Nc3ccc4cc[nH]c4c3)ncc2F)cc1Cl` [Compound 632, N4-[3-Chloro-4-(2-hydroxyethyleneoxy)phenyl]-5-fluoro-N2-(indol-6-yl)-2,4-pyrimidinediamine] was tested. Which IC50 [1, 5] did it give?
**A.** < 10 µM

**Q.** And the IC50 [1, 6]?
**A.** < 10 µM

**Q.** What about the IC50 [2] of the same compound?
**A.** > 10 µM

**Q.** Which IC50 [1, 5] does the source give for `Fc1cnc(Nc2cccc(-c3ncco3)c2)nc1Nc1ccc2c(c1)OC(F)(F)C(F)(F)O2` [Compound 633] here?
**A.** < 10 µM

**Q.** And the IC50 [2]?
**A.** > 10 µM

**Q.** Which IC50 [1, 5] does the source give for `CN(c1ccc2c(c1)OC(F)(F)C(F)(F)O2)c1nc(Nc2cccc(-c3ncco3)c2)ncc1F` [Compound 634] here?
**A.** > 10 µM

**Q.** What about the IC50 [1, 6] of the same compound?
**A.** < 10 µM

**Q.** What about the IC50 [2] of the same compound?
**A.** > 10 µM

**Q.** Which IC50 [1, 5] does the source give for `CNC(=O)COc1c(C)cc(Nc2ncc(F)c(N(C)c3ccc4c(c3)OCCO4)n2)cc1C` [Compound 635, N2-[3,5-Dimethyl-4-(N-methylamino)carbonylmethyleneoxyphenyl]-N4-(3,4-ethylenedioxyphenyl)-5-fluoro-N4-methyl-2,4-pyrimidinediamine] here?
**A.** < 10 µM

**Q.** What about the IC50 [1, 6] of the same compound?
**A.** < 10 µM

**Q.** What about the IC50 [2] of the same compound?
**A.** < 10 µM

**Q.** How did the IC50 [1, 5] turn out when `CNC(=O)COc1c(C)cc(Nc2ncc(F)c(N(C)c3ccc4c(c3)OC(F)(F)C(F)(F)O4)n2)cc1C` [Compound 636, N2-[3,5-Dimethyl-4-(N-methylamino)carbonylmethyleneoxyphenyl]-5-fluoro-N4-methyl-N4-[3,4-(tetrafluoroethylenedioxy)phenyl]-2,4-pyrimidinediamine] was run?
**A.** < 10 µM

**Q.** What about the IC50 [1, 6] of the same compound?
**A.** < 10 µM

**Q.** And the IC50 [2]?
**A.** < 10 µM

**Q.** What does the source list for `CNC(=O)COc1c(C)cc(Nc2ncc(F)c(Nc3ccc4c(c3)OC(F)(F)C(F)(F)O4)n2)cc1C` [Compound 637, N2-[3,5-Dimethyl-4-(N-methylamino)carbonylmethyleneoxyphenyl]-5-fluoro-N4-[3,4-(tetrafluoroethylenedioxy)phenyl]-2,4-pyrimidinediamine]?
**A.** IC50 [1, 5]: < 10 µM; IC50 [2]: > 10 µM

**Q.** How did the IC50 [1, 5] turn out when `CNC(=O)COc1c(C)cc(Nc2ncc(F)c(N(C)c3cc(OC)cc(OC)c3)n2)cc1C` [Compound 638, N2-[3,5-Dimethyl-4-(N-methylamino)carbonylmethyleneoxyphenyl]-N4-(3,5-dimethoxyphenyl)-5-fluoro-N4-methyl-2,4-pyrimidinediamine] was run?
**A.** < 10 µM

**Q.** What about the IC50 [1, 6] of the same compound?
**A.** < 10 µM

**Q.** What about the IC50 [2] of the same compound?
**A.** < 10 µM

**Q.** What does the source list for `COC(=O)Cn1ccc2ccc(Nc3ncc(F)c(Nc4ccc5c(c4)NC(=O)C(C)(C)O5)n3)cc21` [Compound 639, N4-(2,2-Dimethyl-3-oxo-4H-benz[1,4]oxazin-6-yl)-5-fluoro-N2-[1-(methoxycarbonylmethylene)indol-6-yl]-2,4-pyrimidinediamine]?
**A.** IC50 [1, 5]: < 10 µM; IC50 [1, 6]: < 10 µM; IC50 [2]: > 10 µM
